Our source for the IC50 values is BindingDB's records for doi:10.1021/jm981129a (Julius-Maximilians University Würzburg, 1999).

This assay has as its target Nitric oxide synthase, brain (Sus scrofa). Briefly: Inhibitory activity against Nitric oxide synthase (derived from porcine brain cerebellum).

Take `Nc1nc(N)c2nc(COc3ccccc3)cnc2n1` [6-Phenoxymethyl-pteridine-2,4-diamine]: half-maximal inhibition (IC50) required 180 µM.
